From PubChem BioAssay AID1648 (Sanford-Burnham Center for Chemical Genomics, 2009) come the findings set out here.

For this experiment, the target named is Serine/threonine-protein kinase mTOR (Homo sapiens) (UniProt P42345). The experiment in a line: mTOR FRB domain ligand binding – biophysical, NMR (AID 1648). To be noted: NMR binding to FRB domain, chemical shift.

Active and inactive are the calls of the source. No rule for the calls is given here. Some results are limits rather than exact numbers.

Serine/threonine-protein kinase mTOR (Homo sapiens), sequence (P42345 2015-2114): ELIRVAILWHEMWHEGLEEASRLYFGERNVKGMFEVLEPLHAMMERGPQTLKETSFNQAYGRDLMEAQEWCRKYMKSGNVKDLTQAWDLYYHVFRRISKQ

On to `Cc1cc(N)on1`, for which the Kd – broadly, the concentration at which binding is half-saturated – is > 4 mM (inactive).

Regarding `O=C1N/C(=N\c2ccccn2)SC1Cc1ccccc1` (stereo unspecified), the Kd is > 4 mM (inactive).

Regarding `COC(=O)CSc1n[nH]c(N)n1`, the Kd is > 4 mM (inactive).

Regarding `CCCn1c(C)cc(=O)[nH]c1=O`, the Kd is > 4 mM (inactive).

With `CN1CCC(=NNC(=O)c2ccco2)CC1`, the Kd was > 4 mM (inactive).

Regarding `COC(=O)[C@@]1(C)CCC[C@]2(C)c3ccc(O)c(C(C)C)c3CCC12` (stereo partly specified), the Kd was > 4 mM (inactive).

As to `CC(=O)Oc1c(-c2ccccc2)oc2c(CC=C(C)C)c3c(c(OC(C)=O)c2c1=O)C=CC(C)(C)O3`, the Kd was > 4 mM (inactive).

Consider `O=C(c1ccc(Cl)s1)N1CCOCC1`, for which the Kd is > 4 mM (inactive).

Take `O=C(c1ccccc1)c1ccccc1C(=O)N1CCCC1`: the Kd is > 4 mM (inactive).

As to `COc1ccc(Cl)cc1-c1n[nH]c(=S)n1C`, the Kd was > 4 mM (inactive).

Consider `NC(=O)c1ccc(-c2ccccn2)s1`, for which the Kd is > 4 mM (inactive).

In the case of `Clc1ccc(-c2noc(CN3CCCC3)n2)cc1`, the Kd is > 4 mM (inactive).

As to `Cc1ccc(Nc2nnns2)cc1C`, the Kd is > 4 mM (inactive).

On to `O=c1c(O)c(-c2ccccc2)oc2ccc3occc3c12`, for which the Kd is > 4 mM (inactive).

Take `COC(=O)c1ccc(/C=C2/NC(=S)NC2=O)cc1`: the Kd was > 4 mM (inactive).

Consider `CCOC(=O)c1nc2ccccc2c(=O)n1N`, for which the Kd is > 4 mM (inactive).

As to `C=C1CSc2nc(=O)c3c(C)c(C)sc3n21`, the Kd was > 4 mM (inactive).

Consider `COc1ccc2c(c1OC)C(=O)OC2[C@H]1c2c(cc3c(c2OC)OCO3)CCN1C` (stereo partly specified), for which the Kd is > 4 mM (inactive).

For `CC1=C(CCC(=O)O)c2cc3nc(cc4[nH]c(cc5[nH]c(cc1n2)c(C)c5C(C)O)c(C)c4C(C)O)C(C)=C3CCC(=O)O` (stereo unspecified), the Kd was > 4 mM (inactive).

Take `COC1CC(O[C@H]2CC[C@]3(C=O)C4CC[C@]5(C)C(C6=CC(=O)OC6)CC[C@]5(O)C4CC[C@]3(O)C2)OC(C)C1O` (stereo partly specified): the Kd is > 4 mM (inactive).

As to `Clc1ncnc2[nH]ncc12`, the Kd was > 4 mM (inactive).

For the compound `COc1cc(OC)c2c(=O)c(O)c(-c3ccc(OC)c(OC)c3)oc2c1`, the Kd was > 4 mM (inactive).

Take `CN(C)c1nc(N2CCOCC2)c2cnn(C)c2n1`: the Kd was > 4 mM (inactive).

As to `c1ccc(-c2noc(-c3ccc4c(c3)OCO4)n2)nc1`, the Kd was > 4 mM (inactive).

Regarding `N=Cc1c(O)n(-c2cccc(Cl)c2)c(=O)[nH]c1=O`, the Kd is > 4 mM (inactive).

Regarding `Cn1c(=O)c2c(ncn2C)n(C)c1=O`, the Kd is > 4 mM (inactive).

On to `Cn1nc(-c2ccccc2)cc1N`, for which the Kd was > 4 mM (inactive).

`COC1=CC(=O)C(O)=C/C1=C\C=C\c1ccccc1`: the Kd is > 4 mM (inactive).

`O=C(NCc1ccncc1)c1cccc(F)c1`: the Kd is > 4 mM (inactive).

For the compound `CC(=O)Oc1ccc(N2C(=O)C3C4C=CC(O4)C3C2=O)cc1` (stereo unspecified), the Kd was > 4 mM (inactive).

With `O=C1CCCN1C(=O)c1ccc(F)cc1`, the Kd is > 4 mM (inactive).

As for `COCC(=O)Nc1c(C(N)=O)oc2ccccc12`, the Kd is > 4 mM (inactive).

As to `CC1CN(Cc2ccccn2)CCC1=O` (stereo unspecified), the Kd was > 4 mM (inactive).

For `O=C(O)CC1C(=O)NCCN1Cc1ccccc1` (stereo unspecified), the Kd was > 4 mM (inactive).

For the compound `C/C1=C\CCC(=O)C2CC(C)(C)C2CC1` (stereo unspecified), the Kd is > 4 mM (inactive).

Consider `CC(=O)NC(=S)Nc1ccc(C(C)=O)cc1`, for which the Kd is > 4 mM (inactive).

On to `O=C(/C=C/c1ccccc1)c1ccc(O[C@@H]2O[C@H](CO)[C@@H](O)[C@H](O)[C@H]2O)cc1O`, for which the Kd is > 4 mM (inactive).

On to `CNC(Cc1c[nH]c2ccccc12)C(=O)O` (stereo unspecified), for which the Kd is > 4 mM (inactive).

As to `CC(=O)OC1CCC2(C)C3CC(=O)C4(C)C(CC5OC6(CCC(C)CO6)[C@@H](C)C54)C3CC[C@H]2C1` (stereo partly specified), the Kd was > 4 mM (inactive).

Take `O=C(O)CCC(=O)c1c[nH]c2ccccc12`: the Kd is > 4 mM (inactive).

As to `CC(O)(C(=O)O)c1ccccc1` (stereo unspecified), the Kd is > 4 mM (inactive).

In the case of `NC(=O)c1ccc(N2C(=O)CCC2=O)cc1Cl`, the Kd is > 4 mM (inactive).

Take `Cc1ccc(CO)o1`: the Kd is > 4 mM (inactive).

In the case of `N#CC(O[C@@H]1O[C@H](CO[C@@H]2O[C@H](CO)[C@@H](O)[C@H](O)[C@H]2O)[C@@H](O)[C@H](O)[C@H]1O)c1ccccc1` (stereo partly specified), the Kd is > 4 mM (inactive).

With `CCC(=O)NC(=S)Nc1ccc(O)cc1`, the Kd was > 4 mM (inactive).

With `Cc1ccccc1C(=O)Nn1cnnc1`, the Kd is > 4 mM (inactive).

`OC1CCNC2CCCCC12` (stereo unspecified): the Kd is > 4 mM (inactive).

As to `N#CCc1nc2ccccc2s1`, the Kd is > 4 mM (inactive).

As to `Cc1nnc(Nc2ccc(S(N)(=O)=O)cc2)[nH]c1=O`, the Kd is > 4 mM (inactive).

Take `CC(=O)C1=C(O)C(=O)NC1c1ccccc1` (stereo unspecified): the Kd was > 4 mM (inactive).

With `CN=C(c1ccc([N+](=O)[O-])cc1)N(C)C`, the Kd was > 4 mM (inactive).

For the compound `CNS(=O)(=O)c1cc(OC)ccc1OC`, the Kd was > 4 mM (inactive).

Take `O=C1C2=C(SCCS2)C(=O)N1CCCO`: the Kd was > 4 mM (inactive).

On to `COc1cc(C(C)=O)ccc1OC(=O)N1CCOCC1`, for which the Kd was > 4 mM (inactive).

Regarding `OCn1nnn(-c2ccccc2)c1=S`, the Kd is > 4 mM (inactive).

Consider `CC(O)C(=O)N/N=C/c1ccccc1` (stereo unspecified), for which the Kd is > 4 mM (inactive).

Turning to `Cn1nc(C(=O)NC2CCCCC2)c2ccccc2c1=O`, the Kd is > 4 mM (inactive).

As to `C=CCCCCCCCCCCCC(O)CC(O)COC(C)=O` (stereo unspecified), the Kd was > 4 mM (inactive).

Regarding `O=C1C2C3CCC(O3)C2C(=O)N1c1cccc(F)c1` (stereo unspecified), the Kd was > 4 mM (inactive).

For `CC(=O)N1CCN(S(=O)(=O)c2ccccc2)CC1`, the Kd was > 4 mM (inactive).

As for `NC(=O)COc1cccc2cccnc12`, the Kd is > 4 mM (inactive).

With `Cc1cccc(-c2nnc(-c3ccc(N)cc3)o2)c1`, the Kd is > 4 mM (inactive).

As to `c1ccc(-c2nsc(N3CCNCC3)n2)cc1`, the Kd is > 4 mM (inactive).

In the case of `CC(=O)Nc1ccc(NC(=O)N2CCOCC2)cc1`, the Kd was > 4 mM (inactive).

Consider `CN(C)N1C(=O)c2ccccc2C1=O`, for which the Kd is > 4 mM (inactive).

For the compound `O=c1/c(=C/c2ccccc2F)sc2ncnn12`, the Kd is > 4 mM (inactive).

With `O=C(NCCO)c1ccccc1I`, the Kd is > 4 mM (inactive).

As to `Cc1occc1C(=O)N1CCN(S(C)(=O)=O)CC1`, the Kd was > 4 mM (inactive).

`COc1ccc(S(=O)(=O)N2CCOCC2)cc1C(C)C`: the Kd was > 4 mM (inactive).

With `O=C(O)c1ccc(Nc2nncc(=O)[nH]2)cc1`, the Kd was > 4 mM (inactive).

As to `Cc1nnc(SCC(=O)N2CCCCC2)s1`, the Kd is > 4 mM (inactive).

`CC[C@H]1CN2CCC1C[C@@H]2[C@@H](O)c1ccnc2ccc(OC)cc12` (stereo partly specified): the Kd is > 4 mM (inactive).

With `OCC1CCCCCN1` (stereo unspecified), the Kd is > 4 mM (inactive).

As to `COc1cc(C/C=C/c2ccccc2)c(OC)cc1O`, the Kd is > 4 mM (inactive).

Regarding `CC(=O)Nc1ccc(Oc2nc(C)cc(C)n2)cc1`, the Kd was > 4 mM (inactive).

Regarding `OCCCc1nc2ccccc2[nH]1`, the Kd was > 4 mM (inactive).

As to `COc1cc2c(cc1OC)C1Cc3ccc(OC)c(OC)c3CN1CC2` (stereo unspecified), the Kd was > 4 mM (inactive).

On to `O=C(Nc1ccc2c(c1)OCCO2)c1ccncc1`, for which the Kd is > 4 mM (inactive).

Take `Cc1cc2nc(SCC(=O)O)nc(C)c2cc1C`: the Kd was > 4 mM (inactive).

Take `CC1(C)C2CC(=O)[C@]3(C)C(CC[C@@]4(C)[C@H](c5ccoc5)OC(=O)[C@H]5O[C@]543)[C@@]2(C)C(=O)C[C@H]1O` (stereo partly specified): the Kd is > 4 mM (inactive).

Turning to `COc1cc(C(=S)N2CCOCC2)ccc1O`, the Kd was > 4 mM (inactive).

Consider `CC(C)=CCc1c2c(c3occ(-c4ccc(O)cc4)c(=O)c3c1O)C=CC(C)(C)O2`, for which the Kd was > 4 mM (inactive).

With `OCC1COc2ccccc2O1` (stereo unspecified), the Kd is > 4 mM (inactive).

Consider `COn1c(=O)c(C)[n+]([O-])c2ccccc21`, for which the Kd was > 4 mM (inactive).

Regarding `c1ccc(CNc2ncnc3nc[nH]c23)nc1`, the Kd is > 4 mM (inactive).

On to `CCc1ccc(C(=O)N2CCCC2)s1`, for which the Kd is > 4 mM (inactive).

As for `C/C1=C/CC(C)(C)/C=C/C/C(C)=C/CC1`, the Kd is > 4 mM (inactive).

In the case of `Cc1sc2nc[nH]c(=S)c2c1C`, the Kd is > 4 mM (inactive).

Take `O=C1CS/C(=N/S(=O)(=O)c2ccccc2)N1`: the Kd is > 4 mM (inactive).

On to `O=c1[nH]c2sc3c(c2c2nncn12)CCCC3`, for which the Kd is > 4 mM (inactive).

For `Cn1c(CNc2ccccc2)cc(=O)n(C)c1=O`, the Kd was > 4 mM (inactive).

For the compound `c1csc(-c2nnc3ccccn23)c1`, the Kd is > 4 mM (inactive).

For the compound `CC(=O)CC1(O)C(=O)Nc2ccccc21` (stereo unspecified), the Kd was > 4 mM (inactive).

In the case of `CC(CC(O)C1OC1(C)C)[C@@H]1CCC2(C)C3=CCC4C(C)(C)C(=O)CCC4(C)C3CC[C@@]12C` (stereo partly specified), the Kd is > 4 mM (inactive).

As to `O=C(O)C1CCN(S(=O)(=O)c2cccs2)CC1`, the Kd is > 4 mM (inactive).

As for `COc1cc2c(cc1OC)[C@@H]1C(=O)c3ccc4c(c3O[C@@H]1CO2)C=CC(C)(C)O4`, the Kd is > 4 mM (inactive).

For `CSc1nsc(SCc2cnc(C)nc2N)n1`, the Kd is > 4 mM (inactive).

Consider `COc1cc2nc(-c3cccs3)oc(=O)c2cc1OC`, for which the Kd is > 4 mM (inactive).

Consider `C/C=C(/C)C(=O)O[C@@H]1Cc2c(ccc3ccc(=O)oc23)OC1(C)C`, for which the Kd was > 4 mM (inactive).

Regarding `Nc1ncnc2c1ncn2CCN1CCCCC1`, the Kd was > 4 mM (inactive).

`Cc1nc2ccc(F)cc2cc1C(=O)NCc1ccco1`: the Kd was > 4 mM (inactive).
